Experimental findings from patent US9210928B2, “Plant development control composition” (Syngenta Crop Protection, LLC, priority 2008, dated 2015) are described below.

Each structure is given as a SMILES string. “Also recorded” adds a separate entry of the source.

For this experiment, the target named is T1, AtCCD7 (Arabidopsis thaliana, UniProt Q7XJM2).
T1 construct: expressed in transfected cells; host or cells: E. coli BL21(DE3) harbouring pAC-BETA
T1 sequence (Q7XJM2 32-618): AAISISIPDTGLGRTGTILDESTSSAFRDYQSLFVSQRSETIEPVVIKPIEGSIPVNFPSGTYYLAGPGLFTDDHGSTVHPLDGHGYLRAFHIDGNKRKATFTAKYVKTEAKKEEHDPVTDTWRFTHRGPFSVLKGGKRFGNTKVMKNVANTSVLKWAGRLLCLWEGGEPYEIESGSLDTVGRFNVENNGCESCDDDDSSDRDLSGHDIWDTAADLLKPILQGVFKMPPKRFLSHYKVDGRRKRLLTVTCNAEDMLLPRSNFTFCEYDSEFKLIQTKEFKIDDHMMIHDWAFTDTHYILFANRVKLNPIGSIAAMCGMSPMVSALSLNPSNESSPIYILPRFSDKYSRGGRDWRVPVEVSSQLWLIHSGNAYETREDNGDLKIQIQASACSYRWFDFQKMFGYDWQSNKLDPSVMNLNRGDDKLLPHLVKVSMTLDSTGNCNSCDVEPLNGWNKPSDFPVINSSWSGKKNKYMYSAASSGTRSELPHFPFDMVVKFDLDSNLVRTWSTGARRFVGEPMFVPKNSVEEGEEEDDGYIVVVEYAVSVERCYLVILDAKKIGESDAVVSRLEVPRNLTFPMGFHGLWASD
The experiment is described as follows: In vivo enzyme assay in β-carotene-producing E. coli expressing AtCCD7. It counts as cell-based. The conditions noted are these: 100 μM inhibitor, 16 hours; FIG. 4. An excerpt:
In vivo enzyme assays in E. coli—The genes of interest (supplemental Table S1) were cloned into the vector pET30c (Novagen) fused directly to the initial ATG codon with no tag, or into pGEX-4T such that the gene was fused to an N-terminal GST tag. All genes were full length except AtCCD7, which had the chloroplast signal sequence removed (supplemental methods). […] Therefore, this construct was used in subsequent assays. The plasmids were transferred to the E. coli expression strain BL21(DE3), harbouring pAC-BETA (38), and therefore producing β-carotene.
For each inhibitor assay, 2.5 ml LB media with the appropriate antibiotics (25 μg ml^−1 chloramphenicol and 50 μg ml^−1 kanamycin or 100 μg ml^−1 ampicillin) and 2.5 μM IPTG, was prepared. Inhibitors (0.1 M in 100% ethanol) were added to the media to a final concentration of 100 μM. The media was then inoculated with 0.25 ml of overnight culture (grown at 37° C. with the appropriate antibiotics) and incubated with shaking (200 rpm) at 28° C. for 16 hours. One ml of culture was harvested by microcentrifugation and resuspended thoroughly in 1 ml ethanol containing 0.2% Triton X-100. […] The supernatant was removed and the O.D.453-O.D.550 was measured. The amount of β-carotene was calculated using a standard curve generated from a dilution series of β-carotene (Sigma) in ethanol with 0.2% Triton X-100; the absolute levels of β-carotene are shown in FIG. 8. The relative inhibition was calculated by the equation: (Ci−Cc)/(C1−Cc)×100, where Ci is the carotenoid level with inhibitor and CCD present, Cc is the level with CCD but without the inhibitor and C1 is the level in a strain where lacZ is expressed instead of the CCD, and no inhibitor is present. […]
In vivo activity of inhibitors applied to E. coli strains expressing CCDs—Coloured E. coli strains that produce various carotenoids can be constructed by expression of enzymes for carotenoid synthesis (26). […] The difference in the carotenoid levels gave a measure of CCD activity, and inhibition of this activity was measured by addition of inhibitors to the growing medium. […]
Turning to `COc1ccc(C(=O)N(O)Cc2ccccc2)cc1` [Compound F1, N-benzyl-4-methoxybenzoyl hydroxamic acid], the “relative inhibition of AtCCD7 in E. coli (in words)” value is given as “poor inhibition; also recorded: relatively small activity; also recorded: relatively ineffective against AtCCD7; also recorded: poor inhibitors against AtCCD7”.
The result for `COc1ccc(C(=O)N(O)Cc2ccccc2)cc1OC` [Compound F3, N-benzyl-3,4-dimethoxybenzoyl hydroxamic acid] reads “inactive”.
In the case of `COc1ccc(C(=O)N(O)Cc2ccc(F)cc2)cc1` [Compound F2, N-(4-fluorobenzyl)-4-methoxybenzoyl hydroxamic acid] it was “poor inhibition; also recorded: relatively small activity; also recorded: relatively ineffective against AtCCD7; also recorded: poor inhibitors against AtCCD7”.
